Measurements reported in patent US20170349540A1, “HISTONE DEACETYLASE INHIBITORS” (The General Hospital Corporation, priority 2014, published 2017).

Columns and labels:
HDAC = assay: In vivo PET imaging: blocking of whole brain uptake of the radiolabeled compound of Example 3; parameters: species or system rat
Description: Male Sprague-Dawley rats were utilized in pairs, anesthetized with inhalational isoflurane (Forane) at 3% in a carrier of 1.5-2 L/min medical oxygen and maintained at 2% isoflurane for the duration of the scan. The rats were arranged head-to-head in a Triumph Trimodality PET/CT/SPECT scanner (Gamma Medica, Northridge, Calif.). Rats were injected standard references or vehicle via a lateral tail vein catheterization at the start of Positron Emission Tomography (PET) acquisition. Dynamic PET acquisition lasted for 60 min and was followed by computed tomography (CT) for anatomic co-registration. PET data were reconstructed using a 3D-MLEM method resulting in a full width at half-maximum resolution of 1 mm. Reconstructed images were exported from the scanner in DICOM format along with an anatomic CT for rodent studies. These files were imported to PMOD (PMOD Technologies, Ltd.) and manually coregistered using six degrees of freedom.
Volumes of interest (VOIs) were drawn manually as spheres in brain regions guided by high resolution CT structural images and summed PET data, with a radius no less than 1 mm to minimize partial volume effects. Time-activity curves (TACs) were exported in terms of decay corrected activity per unit volume at specified time points with gradually increasing intervals. The TACs were expressed as percent injected dose per unit volume for analysis.
Summed PET images following injection with the ^11C radiolabeled (E)-3-(4-((((1r,3R,5S)-adamantan-1-ylmethyl)(methyl)amino)methyl)phenyl)-N-hydroxyacrylamide (Example 3) at baseline or after 5 minutes pretreatment with 0.5 or 2.0 mg/kg unlabeled (E)-3-(4-((((1 r,3R,5 S)-adamantan-1-ylmethyl) (methyl)amino)methyl)phenyl)-N-hydroxyacrylamide illustrate brain uptake and self-blocking, as shown in FIG. 1A. Whole-brain tracer uptake levels, normalized to uptake at 10 min, were altered by 10-40% in self-blocking experiments with 5 min pretreatment with 1.0 μg-2.0 mg/kg unlabeled (E)-3-(4-((((1r,3R,5S)-adamantan-1-ylmethyl) (methyl)amino)methyl)phenyl)-N-hydroxyacrylamide, as shown in FIGS. 1B and 1C. This quantification provides a means to measure occupancy of HDAC targets on the basis of blocked binding of the radiolabeled compound of Example 3.
Whole brain uptake of the radiotracer of Example 3 was measured 4 h after acute systemic treatment.

[1] = Intraperitoneal pharmacokinetics and brain distribution assay; assay type: in vivo, male Sprague Dawley rats; details: single i.p. dose 1 mg/kg
Description: Healthy male Sprague Dawley rats (8-12 weeks old) weighing between 200 to 250 g were procured from Tina Labs, Hyderabad, India. Three rats were housed in each cage. Temperature and humidity were maintained at 22±3° C. and 40-70%, respectively and illumination was controlled to give a sequence of 12 hr light and 12 hr dark cycle. Temperature and humidity were recorded by auto-controlled data logger system. All the animals were provided laboratory rodent diet (Vetcare India Pvt. Ltd, Bengaluru) ad libitum. Reverse osmosis water treated with ultraviolet light was provided ad libitum.
Twenty one male Sprague Dawley rats were intraperitoneally administered with a solution formulation of the compound of Example 2 prepared in 10% DMSO, 10% Tween 80, and 80% normal saline. The blood samples were collected from a set of three rats at each time point in labeled micro centrifuge tube containing K2EDTA solution as anticoagulant. Plasma samples were separated by centrifugation of whole blood and stored at below −70° C. until bioanalysis. After collection of blood samples at each time point animals, were humanely euthanized by CO2 and the brain was collected. Brain samples were homogenized using ice-cold phosphate buffer saline (pH=7.4) and homogenates were stored at below −70° C. until analysis. Total homogenate volume was three times the brain weight. All samples were processed for analysis by protein precipitation using acetonitrile and analyzed with fit-for-purpose LC-MS/MS method (Lower Limits of Quantitation (LLOQ)=2.01 ng/mL in plasma and 1.01 ng/mL in brain). Pharmacokinetic parameters were calculated using the non-compartmental analysis tool of Phoenix WinNonlin® (Version 6.3).
The intraperitoneal solution formulation concentration was 0.1 mg/mL. The weighed quantity (7.02 mg) of (E)-3-(4-((((3r,5r,7r)-adamantan-1-ylmethyl)(methyl)amino)methyl)phenyl)-N-(2-aminophenyl)acrylamide was added in a labeled bottle. DMSO (7.02 mL) was added to dissolve the compound, followed by addition of Tween 80 (7.02 mL) and the solution was mixed by vortexing. Next, normal saline was added (56.16 mL) and the resulting solution was mixed by vortexing. The solution formulation was sonicated for 2 minutes to obtain a clear and transparent solution.
The blood samples were collected from set of three rats at each time point in labeled micro centrifuge tube containing K2EDTA solution as anticoagulant at time points of 0.08, 0.5, 1, 2, 4, 6, 8 & 24 hours. […]
Concentrations of the compound of Example 2 in rat plasma and brain samples were analyzed with fit-for-purpose by LC-MS/MS method. […] Following centrifugation, 100 µL of clear supernatant was transferred a 96-well plate and analyzed using LC-MS/MS. […]

With `CN(Cc1ccc(/C=C/C(=O)Nc2ccccc2N)cc1)CC12CC3CC(CC(C3)C1)C2` [Example 2, (E)-3-(4-((((3r,5r,7r)-adamantan-1-ylmethyl)(methyl)amino)methyl)phenyl)-N-(2-aminophenyl)acrylamide] the “block of whole brain tracer uptake” value (HDAC; 0.1 mg/kg (lowest tested dosage), 4 h after acute systemic treatment, radiotracer of Example 3, relative to vehicle-blocked baseline) was 25%, the “HDAC occupancy in the brain” value (HDAC; 0.1 mg/kg i.p., based on PET imaging experiments) was about 25% and the “tracer uptake returning to baseline by (time post treatment)” value (HDAC; 0.1 mg/kg, radiotracer of Example 3) was at most 7.5 h. The Kp ([1]; male, Sprague Dawley, rat, brain/plasma, ip, read-out: Brain-to-plasma exposure ratio) was 20.6, the Tmax ([1]; male, Sprague Dawley, rat, plasma, ip) was 30 min and the “brain concentrations quantifiable up to” value ([1]; brain (2 animals), LLOQ 1.01 ng/mL) was at most 24 h. The “plasma concentrations quantifiable up to” value ([1]; plasma (2 animals), LLOQ 2.01 ng/mL) was “up to 8 h”.
